Results from US12208085B2, “Pyrazoline-derived compound for use in the prevention and/or treatment of pain and inflammation associated to surgery in mammals” (ECUPHAR NV, priority 2022, dated 2025).

What was measured:
Format in all cases: in vivo
[1] = test system: dogs undergoing experimental orthopaedic surgery; test: Postoperative pain after experimental knee surgery (Maquet Modified Procedure), SFGCPS scoring; details: Beagle dogs
Method: The study was performed with 6 clinically healthy Beagle dogs with similar age and weight that were experimentally subjected to knee surgery (repair of cranial cruciate ligament rupture). […] All surgeries were conducted under the same preoperative, intraoperative and postoperative protocols and performed by the same surgeon. A highly standardized surgical technique, Maquet Modified Procedure (MMP) (12) was implemented.
For each dog the study lasted 17 days, including a 7-day acclimatization period. On day D−1 (approximately 24 h before the intervention) the five dogs in the TG received a single oral dose (8 mg/kg) of the TP, the one dog in the CG received a single subcutaneous dose (0.1 mg/kg) of the RP. […] On day D0 all dogs underwent knee surgery in the right knee. From day D1 up to day D10 dogs were closely examined and signs of pain and discomfort were blindly evaluated and rated using the Short Form of the Glasgow Composite Pain Scale (SFGCPS) ranging from 0 to 24 (13 and http://www.newmetrica.com/cmps/). On day D−1 dogs were also examined to rule out signs of pain or discomfort.

[2] = test system: dogs undergoing soft tissue surgery; test: Pilot field trial, postoperative pain and inflammation after elective soft tissue surgery (SFGCMPS, VAS), Placebo control; set-up: SFGCMPS Mobility average value / SFGCMPS Demeanour average value / SFGCMPS Posture/Activity average value / Total SFGCMPS average value / SFGCMPS Vocalization average value / SFGCMPS Attention to wound average value: scale not given here
Excerpt: The study was a single centre, prospective, parallel-controlled, randomized and blinded pilot field trial with a negative (Placebo) control to evaluate the efficacy of E-6087 in dogs undergoing elective soft tissue surgery.
Twenty dogs (17 females and 3 males) were included in the study. Dogs were of different breeds or crossbreed, ages from 3 months to 7 years and weights from 4 to 34 kg. All dogs were clinically healthy other than the condition causing the animal to go under surgery.
Two days before surgery animals were weighed, a detailed physical examination was performed, and blood samples were collected for routine haematology and biochemistry to confirm the good health status of the animals before inclusion.
Dogs were randomly allocated to receive either E-6087 or Placebo as oral tablets. E-6087 and Placebo tablets were similar (same appearance and packaging), therefore treatment administration, clinical examinations and blood sample analysis was always blind.
E-6087 was administered at the dose of 8 mg/kg on day D−1, approximately 24 h before surgery scheduled time, before the first meal of the day. Placebo tablets were administered following the same posology.
Surgeries were performed in the morning, on day D0 by the Investigator (Surgeon). All surgeries were performed under the same anaesthesia protocol. Premedication was performed with medetomidine and morphine both at 0.1 ml/10 kg followed by anaesthesia maintained with Tiletamine/Zolazepam (Zoletil®). Local anaesthesia was not permitted. At the end of surgery, antibiotic therapy was administered to all dogs following the post-operative protocol stablished: amoxicillin (trihydrate) at 15 mg of amoxicillin/kg bw in a single dose.
Clinical assessments of postoperative pain and inflammation were done by the Investigator (Examining Veterinarian) using the SFGCMPS (13). Visual Analog Scales (VAS) were also used to assess pain at rest and under palpation as well as the level of inflammation.
On D0 at approximately 2 hours before surgery the Examining Veterinarian performed a physical examination and the clinical assessment of pain and inflammation to determine the basal scores. After surgery pain and inflammation were assessed at six examination time points: t1.5 h, t3 h, t5 h (±30 minutes), t8 h (±1 hour), t24 h and t168 (D7), when t0 h corresponded to the end of surgery (extubation).
Clinical assessment of pain and inflammation included assessments of vocalization, attention to wound area, mobility, reaction to pressure at the wound area, general behaviour as well as activity and posture as per SFGCMPS. In addition, pain at rest and after palpation as well as the level of inflammation were assessed at the same time points by VAS ranging from 0 (no pain) to 100 (severe pain manifested by vocalization, aggression, and refusal to allow examination) and from 0 (no inflammation) to 100 (major inflammation as local heat, redness or paresis of the affected area).
Statistical Analysis was performed by use of commercially available software (SigmaPlot for Windows version 13.0). The area under the curve (AUC) was calculated for observable pain during the initial 8 and 24 hours, and it was considered as the primary efficacy variable. All analyses applied a two-sided significance level α=0.05 and a power β=80%. Demographic and baseline data were compared using the Mann-Whitney U test. Gender was compared with the Fisher exact probability test in contingency tables. Efficacy variables were analysed by repeated measures ANOVA.
The foremost surgical procedure was ovariohysterectomy, and this determined that most included animals were females. Sixteen females were ovariohysterectomized. Two males were castrated by cryptorchidectomy. […] All surgeries lasted less than 30 minutes except for one that lasted 54 minutes (perineal hernia).

[3] = test system: dogs undergoing orthopaedic surgery; test: Non-inferiority field study, postoperative pain and inflammation after orthopaedic surgery (SFGCMPS, VAS), meloxicam control
Excerpt: The study was a non-inferiority, multicentre, prospective, parallel-controlled, randomized and blinded field study.
Thirty-two dogs of different breed, age and weight presenting at the veterinary practice for orthopaedic surgery were included.
Agents with analgesic effect were permitted as premedication. However, intraoperative or postoperative analgesia were not permitted.
For each dog the study lasted twelve days. Two days before surgery, all animals were weighed and underwent a thorough physical examination with clinical pathology to confirm the good health status of the animals before inclusion. Day 0 (D0) was the day dogs underwent surgery and t0 h corresponded to the end of surgery (extubation). The physical examination was repeated on D0, before surgery (t−2 h) and before dispatch (t8 h) and again at t24 h (D1) and t168 (D7) post-surgery. Clinical assessments of pain and inflammation were blindly performed on D0, before surgery (t−2 h) and again at t1.5 h, t3 h, t5 h, t8 h, t24 h (D1) and t168 h (D7) post-surgery. The global efficacy of treatments was assessed on D7. From day D1 to day D7 post-surgery, the owners assessed the dog's wellbeing.
The primary endpoint for efficacy comprises the sum of scores for the SFGCMPS scale, which was assessed at different time points by the Investigator.
From day D1 to D7, owners daily assessed the dogs' wellbeing using scales for: • Demeanour (0=normal; 1=slightly modified; 2=moderately modified; 3=markedly modified and 4=severely modified). • Mobility (0=normal; 1=slightly impaired; 2=moderately impaired; 3=markedly impaired and 4=severely impaired). • Quality of analgesia as very satisfactory (=1); satisfactory (=2); not very satisfactory (=3); not at all satisfactory (=4).
Blood samples were collected from all animals before inclusion (≤D−2), for routine pre-surgery blood profile. Potential adverse effects related to the products were also recorded.
Statistical Analysis was performed by use of commercially available software. All analyses used a two-sided significance level α=0.05. […]

[4] = 8 mg/kg oral D-1, 1.5 h after surgery
[5] = 8 mg/kg oral D-1, 3 h after surgery
[6] = 8 mg/kg oral D-1, 5 h after surgery
[7] = 8 mg/kg oral D-1, 8 h after surgery
[8] = 8 mg/kg oral D-1, 24 h after surgery

Structure (SMILES): NS(=O)(=O)c1ccc(N2N=C(C(F)(F)F)CC2c2ccc(F)cc2F)cc1 (stereo not shown) [E-6087, enflicoxib]
- potential adverse effects related to product administration ([1]; single oral dose 8 mg/kg on D-1): No potential adverse effects
- need of rescue analgesia ([1]; single oral dose 8 mg/kg on D-1, 10 days follow up): None of the animals needed rescue analgesia
- analgesic efficacy in the postoperative period after orthopaedic surgery ([1]; single oral dose 8 mg/kg on D-1, knee surgery D0): effective as analgesic agent
- SFGCMPS Attention to wound average value [2, 4]: 0
- SFGCMPS Demeanour average value [2, 4]: 0.83
- SFGCMPS Mobility average value [2, 4]: 0.33
- SFGCMPS Posture/Activity average value [2, 4]: 0.17
- SFGCMPS Pressure on wound average value [2, 4]: 0.33
- SFGCMPS Vocalization average value [2, 4]: 0.25
- Total SFGCMPS average value [2, 4]: 1.92
- SFGCMPS Attention to wound average value [2, 5]: 0.08
- SFGCMPS Demeanour average value [2, 5]: 0.50
- SFGCMPS Mobility average value [2, 5]: 0
- SFGCMPS Posture/Activity average value [2, 5]: 0.08
- SFGCMPS Pressure on wound average value [2, 5]: 0.42
- SFGCMPS Vocalization average value [2, 5]: 0.25
- Total SFGCMPS average value [2, 5]: 1.33
- level of inflammation (VAS), compared with Placebo ([2]; 8 mg/kg oral D-1, 3 hours after surgery, p=0.021, Placebo greater): statistically significant differences
- SFGCMPS Attention to wound average value [2, 6]: 0.08
- SFGCMPS Demeanour average value [2, 6]: 0.17
- SFGCMPS Mobility average value [2, 6]: 0
- SFGCMPS Posture/Activity average value [2, 6]: 0
- SFGCMPS Pressure on wound average value [2, 6]: 0.50
- SFGCMPS Vocalization average value [2, 6]: 0
- Total SFGCMPS average value [2, 6]: 0.75
- SFGCMPS Attention to wound average value [2, 7]: 0
- SFGCMPS Demeanour average value [2, 7]: 0
- SFGCMPS Mobility average value [2, 7]: 0
- SFGCMPS Posture/Activity average value [2, 7]: 0
- SFGCMPS Pressure on wound average value [2, 7]: 0.67
- SFGCMPS Vocalization average value [2, 7]: 0
- Total SFGCMPS average value [2, 7]: 0.50
- SFGCMPS Attention to wound average value [2, 8]: 0
- SFGCMPS Demeanour average value [2, 8]: 0
- SFGCMPS Mobility average value [2, 8]: 0
- SFGCMPS Posture/Activity average value [2, 8]: 0
- SFGCMPS Pressure on wound average value [2, 8]: 0.50
- SFGCMPS Vocalization average value [2, 8]: 0
- Total SFGCMPS average value [2, 8]: 0.50
- AUC (primary efficacy variable) for the first 24 hours after surgery, compared with Placebo ([2]; 8 mg/kg oral D-1, difference not statistically significant (p=0.266)): almost half
- SFGCMPS AUC0→8 h ([2]; 8 mg/kg oral D-1, first 8 hours after surgery): 8.0 ± 5.0
- SFGCMPS AUC0→24 h ([2]; 8 mg/kg oral D-1, first 24 hours after surgery): 16.0 ± 15
- AUC for the first 8 hours, compared with Placebo ([2]; 8 mg/kg oral D-1, p=0.033): statistically significant lower values
- Total scores for SFGCMPS at each time point, compared with Placebo ([2]; 8 mg/kg oral D-1, significant only at 1.5, 3 and 5 hours): always lower
- adverse events ([2]; 8 mg/kg oral D-1, whole study): No adverse events were observed
- alleviation of pain and inflammation after soft tissue surgery (conclusion) ([2]; single dose of 8 mg/kg): effective in alleviating pain and inflammation
- level of inflammation (VAS), compared with meloxicam ([3]; 8 mg/kg oral D-1, 3 h after surgery, p=0.025): lower values
- assessment of global efficacy, compared with meloxicam ([3]; 8 mg/kg oral D-1, D7, p=0.7879): No differences were detected
- SFGCMPS (AUC), primary efficacy variable, average value ([3]; initial 24 hours after orthopaedic surgery, E-6087 8 mg/kg oral D-1, meloxicam 0.2 mg/kg D0 then 0.1 mg/kg daily to D7): 95.50±57.70
